The values below come from patent publication US20250361268A1, “NOVEL ANTI-INFLAMMATORY PEPTIDE AND USE THEREOF” (NOVACELL TECHNOLOGY INC., priority 2022, published 2025).

Assay [1] addresses T1, FPR2 (Homo sapiens, UniProt P25090).
T1 construct: expressed in transfected cells; host or cells: RBL cells (RBL-FPR2)
T1 sequence (P25090 1-351): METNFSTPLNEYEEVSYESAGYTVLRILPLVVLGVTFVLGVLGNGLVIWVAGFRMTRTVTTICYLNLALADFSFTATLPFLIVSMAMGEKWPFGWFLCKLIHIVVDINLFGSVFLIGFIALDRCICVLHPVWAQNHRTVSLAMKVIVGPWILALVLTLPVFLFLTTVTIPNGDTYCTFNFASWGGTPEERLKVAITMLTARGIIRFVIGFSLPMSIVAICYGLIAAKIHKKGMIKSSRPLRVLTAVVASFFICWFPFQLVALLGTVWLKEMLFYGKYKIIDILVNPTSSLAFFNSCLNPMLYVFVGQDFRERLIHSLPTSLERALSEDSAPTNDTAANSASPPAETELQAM
The assay can be described thus: Change in calcium activity by peptide (Fura-2) in RBL cells overexpressing FPR2. In kind it is cell-based. Conditions: calcium activity (Fura-2), graded per Table 3, read-out: EC50 for [Ca^2+] FPR2. As for the experimental part:
The present inventors observed changes in calcium ion permeability to confirm whether the immunomodulatory peptide candidates prepared according to one example of the present invention activate the immune function of a living organism. Specifically, the concentration of calcium ions in cells was measured to confirm whether the peptides activate FPR2.
A peptide dissolved in water or 50% DMSO at a concentration of 0.5 mM was prepared by diluting it to an appropriate concentration in HBSS (Sigma, #55037C)+20 mM HEPES buffer.
In this experiment, the cells were cultured in DMEM (Lonza, #BE12-604F) containing 10% fetal bovine serum (FBS) and 1% penicillin-streptomycin under conditions of 37° C. and 5% CO2.
(§1) The day before measuring calcium activity, the cells were prepared at 3×10^5 cells per well in a 96-well flat clear bottom black plate (Costar, #3603). The prepared cells were treated with a Fura-2 QBT calcium kit (component A; Molecular Devices, #8197) at the same volume per well. After incubation at 37° C. for 1 hour, the cells were incubated in a dark room at room temperature for 30 minutes. After the Fura-2-treated cells, the prepared peptide, and a dedicated tip were placed at each section of FlexStation 3 Multi-Mode Microplate Reader (Molecular Devices, #Flex3), changes in calcium activity caused by the peptides were measured using SoftMax Pro 7 Software (Molecular Devices, #FLEX3-INSTALL-OS).

Assay [2] deals with T2, FPR1 (Homo sapiens, UniProt P21462).
T2 sequence (P21462 1-350): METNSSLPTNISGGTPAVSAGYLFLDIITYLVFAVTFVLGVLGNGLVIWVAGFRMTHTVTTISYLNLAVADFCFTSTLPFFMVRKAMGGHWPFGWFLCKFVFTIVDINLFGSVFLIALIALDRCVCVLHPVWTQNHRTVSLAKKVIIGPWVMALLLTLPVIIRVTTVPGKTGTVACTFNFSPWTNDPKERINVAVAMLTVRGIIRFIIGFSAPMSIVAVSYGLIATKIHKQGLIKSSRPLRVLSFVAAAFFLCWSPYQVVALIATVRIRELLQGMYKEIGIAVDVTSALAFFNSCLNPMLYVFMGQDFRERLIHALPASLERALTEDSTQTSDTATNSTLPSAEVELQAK
Kind of assay: Change in calcium activity by peptide, FPR1 activation effect. It counts as cell-based. Conditions: calcium activity (Fura-2), graded per Table 3, read-out: EC50 for [Ca^2+] FPR1. As for the experimental part:
as §1, with “#FLEX3-INSTALL-OS). […]” for “#FLEX3-INSTALL-OS).”

Structures are written as SMILES. Peptide text beside a SMILES is read from it.

What is called EC50 is the midpoint of the concentration-response curve.

For `CSCC[C@H](N)C(=O)N[C@@H](CCCNC(=N)N)C(=O)N[C@@H](Cc1ccc(O)cc1)C(=O)N[C@@H](CCCCN)C(=O)N[C@H](C(=O)N[C@H](CCSC)C(N)=O)C(C)C` [Peptide 13] (HELM PEPTIDE1{M.R.Y.K.V.[dM].[am]}$$$$V2.0), the results for the EC50 in assay [1] and in assay [2] were less than 0.01 µM and greater than 10 µM, respectively.
The matching figures for `CSCC[C@H](N)C(=O)N[C@@H](CCCNC(=N)N)C(=O)N[C@@H](Cc1ccc(O)cc1)C(=O)N[C@@H](CCCCN)C(=O)N1CCC[C@H]1C(=O)N[C@H](CCSC)C(N)=O` [Peptide 54] (HELM PEPTIDE1{M.R.Y.K.P.[dM].[am]}$$$$V2.0): less than 0.01 µM and greater than 10 µM.
The matching figures for `CSCC[C@@H](NC(=O)[C@@H]1CCCN1C(=O)[C@H](CCCCN)NC(=O)[C@H](Cc1ccc(O)cc1)NC(=O)[C@H](CCCNC(=N)N)NC(=O)[C@H](Cc1c[nH]c2ccccc12)NC(C)=O)C(N)=O` [Peptide 76] (HELM PEPTIDE1{[ac].W.R.Y.K.P.[dM].[am]}$$$$V2.0): less than 0.01 µM and 1 to 10 µM.
Regarding `CC[C@H](C)[C@H](N)C(=O)N[C@@H](CCCCN)C(=O)N[C@@H](Cc1ccccc1)C(=O)N[C@@H](Cc1c[nH]c2ccccc12)C(=O)N[C@@H](Cc1ccc(O)cc1)C(=O)N[C@H](CCSC)C(N)=O` [Peptide 128] (HELM PEPTIDE1{I.K.F.W.Y.[dM].[am]}$$$$V2.0), the results for the EC50 in assay [1] and in assay [2] were 0.011 to 0.1 µM and greater than 10 µM, respectively.
Regarding `CSCC[C@H](N)C(=O)N[C@@H](CCCNC(=N)N)C(=O)N[C@@H](Cc1ccc(O)cc1)C(=O)N[C@@H](Cc1ccc(O)cc1)C(=O)N[C@H](C(=O)N[C@H](CCSC)C(N)=O)C(C)C` [Peptide 100] (HELM PEPTIDE1{M.R.Y.Y.V.[dM].[am]}$$$$V2.0), the EC50 was less than 0.01 µM in assay [1] and 1 to 10 µM in assay [2].
For `CSCC[C@@H](NC(=O)[C@@H]1CCCN1C(=O)[C@H](Cc1c[nH]c2ccccc12)NC(=O)[C@H](Cc1ccc(O)cc1)NC(=O)[C@H](CCCCN)NC(=O)[C@H](Cc1c[nH]cn1)NC(C)=O)C(N)=O` [Peptide 150] (HELM PEPTIDE1{[ac].H.K.Y.W.P.[dM].[am]}$$$$V2.0), in that order: less than 0.01 µM and 1 to 10 µM.
For `CSCC[C@H](NC(C)=O)C(=O)N[C@@H](CCCCN)C(=O)N[C@@H](Cc1ccc(O)cc1)C(=O)N[C@@H](Cc1c[nH]c2ccccc12)C(=O)N[C@@H](Cc1ccc(O)cc1)C(=O)N[C@H](CCSC)C(N)=O` [Peptide 90] (HELM PEPTIDE1{[ac].M.K.Y.W.Y.[dM].[am]}$$$$V2.0), in that order: 0.011 to 0.1 µM and greater than 10 µM.
`CCCC(=O)N[C@@H](CCSC)C(=O)N[C@@H](CCCCN)C(=O)N[C@@H](Cc1ccc(O)cc1)C(=O)N[C@@H](Cc1c[nH]c2ccccc12)C(=O)N[C@@H](Cc1ccc(O)cc1)C(=O)N[C@H](CCSC)C(N)=O` [Peptide 91] (HELM PEPTIDE1{[CCCC(=O)[*:2]].M.K.Y.W.Y.[dM].[am]}$$$$V2.0): the EC50 was 0.011 to 0.1 µM in assay [1] and greater than 10 µM in assay [2].
The matching figures for `CSCC[C@H](NC(=O)[C@@H](N)CCCCN)C(=O)N[C@@H](CCCCN)C(=O)N[C@@H](Cc1ccc(O)cc1)C(=O)N[C@@H](CCCCN)C(=O)N1CCC[C@H]1C(=O)N[C@H](CCSC)C(N)=O` [Peptide 66] (HELM PEPTIDE1{K.M.K.Y.K.P.[dM].[am]}$$$$V2.0): 0.011 to 0.1 µM and greater than 10 µM.
For `CSCC[C@@H](NC(=O)[C@@H](NC(=O)[C@H](Cc1ccccc1)NC(=O)[C@H](Cc1ccc(O)cc1)NC(=O)[C@H](CCCNC(=N)N)NC(=O)[C@H](Cc1c[nH]c2ccccc12)NC(=O)[C@@H](N)CCCNC(=N)N)C(C)C)C(N)=O` [Peptide 160] (HELM PEPTIDE1{R.W.R.Y.F.V.[dM].[am]}$$$$V2.0), in that order: 0.011 to 0.1 µM and 1 to 10 µM.
For `CSCC[C@@H](NC(=O)[C@H](Cc1ccc(O)cc1)NC(=O)[C@H](Cc1c[nH]c2ccccc12)NC(=O)[C@H](Cc1ccc(O)cc1)NC(=O)[C@H](CCCNC(=N)N)NC(=O)[C@@H](N)Cc1c[nH]c2ccccc12)C(N)=O` [Peptide 79] (HELM PEPTIDE1{W.R.Y.W.Y.[dM].[am]}$$$$V2.0), in that order: 0.011 to 0.1 µM and greater than 10 µM.
In the case of `CSCC[C@@H](NC(=O)[C@@H]1CCCN1C(=O)[C@H](CCCCN)NC(=O)[C@H](Cc1ccc(O)cc1)NC(=O)[C@H](CCCNC(=N)N)NC(=O)[C@H](Cc1c[nH]c2ccccc12)NC(=O)[C@@H](N)CCCNC(=N)N)C(N)=O` [Peptide 74] (HELM PEPTIDE1{R.W.R.Y.K.P.[dM].[am]}$$$$V2.0), the EC50 in assay [1] was less than 0.01 µM; in assay [2] it was greater than 10 µM.
The matching figures for `CCCCCCCC(=O)N[C@H](C(=O)N[C@@H](CCCCN)C(=O)N[C@@H](Cc1ccc(O)cc1)C(=O)N[C@@H](CCCCN)C(=O)N[C@H](C(=O)N[C@H](CCSC)C(N)=O)C(C)C)[C@@H](C)CC` [Peptide 137] (HELM PEPTIDE1{[CCCCCCCC(=O)[*:2]].I.K.Y.K.V.[dM].[am]}$$$$V2.0): less than 0.01 µM and 1 to 10 µM.
For `CSCC[C@H](NC(=O)[C@@H](N)Cc1c[nH]cn1)C(=O)N[C@@H](CCCNC(=N)N)C(=O)N[C@@H](Cc1ccc(O)cc1)C(=O)N[C@@H](CCCCN)C(=O)N1CCC[C@H]1C(=O)N[C@H](CCSC)C(N)=O` [Peptide 58] (HELM PEPTIDE1{H.M.R.Y.K.P.[dM].[am]}$$$$V2.0), in that order: less than 0.01 µM and greater than 10 µM.
As for `CSCC[C@@H](NC(=O)[C@H](Cc1ccc(O)cc1)NC(=O)[C@H](Cc1c[nH]c2ccccc12)NC(=O)[C@H](Cc1ccc(O)cc1)NC(=O)[C@H](CCCCN)NC(=O)[C@H](Cc1c[nH]c2ccccc12)NC(=O)[C@H](CCCCN)NC(C)=O)C(N)=O` [Peptide 80] (HELM PEPTIDE1{[ac].K.W.K.Y.W.Y.[dM].[am]}$$$$V2.0), the results for the EC50 in assay [1] and in assay [2] were less than 0.01 µM and greater than 10 µM, respectively.
For `CSCC[C@@H](NC(=O)[C@@H](NC(=O)[C@H](Cc1ccc(O)cc1)NC(=O)[C@H](Cc1ccc(O)cc1)NC(=O)[C@H](CCCNC(=N)N)NC(=O)[C@H](Cc1c[nH]c2ccccc12)NC(=O)[C@@H](N)CCCNC(=N)N)C(C)C)C(N)=O` [Peptide 94] (HELM PEPTIDE1{R.W.R.Y.Y.V.[dM].[am]}$$$$V2.0), in that order: less than 0.01 µM and 1 to 10 µM.
For `CSCC[C@@H](NC(=O)[C@@H](NC(=O)[C@H](Cc1ccc(O)cc1)NC(=O)[C@H](Cc1ccc(O)cc1)NC(=O)[C@H](CCCCN)NC(=O)[C@H](Cc1c[nH]c2ccccc12)NC(=O)[C@@H](N)CCCCN)C(C)C)C(N)=O` [Peptide 96] (HELM PEPTIDE1{K.W.K.Y.Y.V.[dM].[am]}$$$$V2.0), in that order: less than 0.01 µM and 1 to 10 µM.
Take `CCCC(=O)N[C@@H](CCSC)C(=O)N[C@@H](CCCNC(=N)N)C(=O)N[C@@H](Cc1ccc(O)cc1)C(=O)N[C@@H](Cc1c[nH]c2ccccc12)C(=O)N[C@@H](Cc1ccc(O)cc1)C(=O)N[C@H](CCSC)C(N)=O` [Peptide 87] (HELM PEPTIDE1{[CCCC(=O)[*:2]].M.R.Y.W.Y.[dM].[am]}$$$$V2.0): the EC50 was less than 0.01 µM in assay [1] and greater than 10 µM in assay [2].
For `CSCC[C@@H](NC(=O)[C@@H](NC(=O)[C@H](Cc1c[nH]c2ccccc12)NC(=O)[C@H](Cc1ccc(O)cc1)NC(=O)[C@H](CCCCN)NC(=O)[C@H](Cc1c[nH]c2ccccc12)NC(=O)[C@H](CCCCN)NC(C)=O)C(C)C)C(N)=O` [Peptide 103] (HELM PEPTIDE1{[ac].K.W.K.Y.W.V.[dM].[am]}$$$$V2.0), in that order: 0.011 to 0.1 µM and 1 to 10 µM.
